Laboratory results published in publication PMC8294059, “Identification and Immune Assessment of T Cell Epitopes in Five Plasmodium falciparum Blood Stage Antigens to Facilitate Vaccine Candidate Selection and Optimization” (Frontiers in Immunology, 2021).
Where a SMILES comes first, the peptide text is derived from it.

Legend:
Experiment in all cases: biochemical
Assay type in all cases: binding
HLA-DRB1*0101 = target: T1, HLA-DRB1*0101 (Homo sapiens, UniProt P01903+P01911, A100R/D57E/F55L/F60I/F76Y/I96L/L162R/M171V/P40L/Q125E/R42F/V115G/Y59C); details: binding inhibition assay; NB = non-binder (no dose-dependent inhibition); read-out: DRB1*0101 IC50
T1 construct: purchased
How it was run: (§1)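 HLA-peptide complexes are captured with anti-HLA-DR antibody, and bound reference is quantified by europium-probe time-resolved fluorescence.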

HLA-DRB1*0401 = target: T2, HLA-DRB1*0401 (Homo sapiens, UniProt P01903+P01911, A100K/A169T/F76Y/I96L/K127E/L162R/M171V/N62H/P40V/Q125Y/R42H/S133A/S149N/S66Y/V115G/V209L/W38E); details: binding inhibition assay; NB = non-binder (no dose-dependent inhibition); read-out: DRB1*0401 IC50
T2 construct: purchased
How it was run: as §1

HLA-DRB1*0701 = HLA-DRB1*0701 (Homo sapiens, UniProt P01903+P01911, A100R/A102G/A103Q/D57E/D86V/E43K/F76Y/K127E/L162R/M171V/P40G/Q125H/Q99D/R33Q/R42Y/R54Q/S133A/S66F/T210M/V115G/Y107V/Y59L/Y89S); details: binding inhibition assay; NB = non-binder (no dose-dependent inhibition); read-out: DRB1*0701 IC50
How it was run: as §1

HLA-DRB1*0801 = HLA-DRB1*0801 (Homo sapiens, UniProt P01903+P01911, A100R/A103L/A169T/D86S/F76Y/H45Y/I96F/K41T/L162R/M171V/P40S/Q125H/Q178H/Q39Y/Q99D/R218S/R42G/S66Y/V115G/W38E); details: binding inhibition assay; NB = non-binder (no dose-dependent inhibition); read-out: DRB1*0801 IC50
How it was run: as §1

HLA-DRB1*1101 = HLA-DRB1*1101 (Homo sapiens, UniProt P01903+P01911, A100R/A169T/A87E/I96F/K41T/L162R/M171V/P40S/Q125H/Q178H/Q39Y/Q99D/R42S/S66Y/T262R/V115G/W38E); details: binding inhibition assay; NB = non-binder (no dose-dependent inhibition); read-out: DRB1*1101 IC50
How it was run: as §1

HLA-DRB1*1301 = HLA-DRB1*1301 (Homo sapiens, UniProt P01903+P01911, A100E/A169T/K41T/L162R/M171V/P40S/Q125H/Q178H/Q39Y/Q99D/R42S/S66N/T262R/W38E/Y61H); details: binding inhibition assay; NB = non-binder (no dose-dependent inhibition); read-out: DRB1*1301 IC50
How it was run: as §1

HLA-DRB1*1501 = target: T3, HLA-DRB1*1501 (Homo sapiens, UniProt P01903+P01911); details: binding inhibition assay; NB = non-binder (no dose-dependent inhibition); read-out: DRB1*1501 IC50
T3 construct: purchased
How it was run: as §1

HLA-DRB1*1101, sequence (P01903 26-254 limits assumed, other chains not shown): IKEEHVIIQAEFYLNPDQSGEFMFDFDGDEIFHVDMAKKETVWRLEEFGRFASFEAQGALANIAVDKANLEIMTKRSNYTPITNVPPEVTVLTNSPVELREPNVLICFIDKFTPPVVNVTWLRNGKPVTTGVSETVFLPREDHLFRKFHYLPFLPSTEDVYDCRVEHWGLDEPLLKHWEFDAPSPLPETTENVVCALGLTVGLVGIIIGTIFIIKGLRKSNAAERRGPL

## CC[C@H](C)[C@H](NC(=O)CNC(=O)[C@H](CCC(N)=O)NC(=O)[C@H](CO)NC(=O)[C@H](CO)NC(=O)[C@H](CO)NC(=O)[C@H](Cc1ccc(O)cc1)NC(=O)[C@@H](NC(=O)[C@H](Cc1ccccc1)NC(=O)[C@H](CC(C)C)NC(=O)[C@@H](NC(=O)[C@H](CCCNC(=N)N)NC(=O)[C@H](CC(N)=O)NC(=O)[C@H](CCC(=O)O)NC(=O)[C@H](CC(=O)O)NC(C)=O)[C@@H](C)O)[C@@H](C)CC)C(=O)N[C@@H](Cc1ccc(O)cc1)C(=O)N[C@@H](CC(N)=O)C(=O)N[C@H](C(=O)N[C@@H](Cc1c[nH]cn1)C(=O)N[C@H](C(N)=O)[C@@H](C)O)[C@@H](C)CC [CYRPA_008] (Ac-DENRTLFIYSSSQGIYNIHT-NH2)
HLA-DRB1*0101
  IC50: 0.004 µM
HLA-DRB1*0401
  IC50: 1.05 µM
HLA-DRB1*0701
  IC50: 0.219 µM
HLA-DRB1*0801
  IC50: 11.5 µM
HLA-DRB1*1101
  IC50: 1.13 µM
HLA-DRB1*1301
  IC50: 6.98 µM
HLA-DRB1*1501
  IC50: 0.05 µM

## CC[C@H](C)[C@H](NC(=O)[C@H](CC(=O)O)NC(=O)[C@H](Cc1ccc(O)cc1)NC(=O)[C@H](CCC(=O)O)NC(=O)[C@H](CC(N)=O)NC(=O)[C@H](CCCNC(=N)N)NC(=O)[C@H](C)NC(=O)[C@H](CCCCN)NC(=O)[C@H](C)NC(=O)[C@H](Cc1ccccc1)NC(=O)[C@H](Cc1ccc(O)cc1)NC(=O)[C@H](CC(C)C)NC(=O)[C@@H](NC(=O)[C@H](Cc1ccccc1)NC(=O)[C@H](Cc1ccccc1)NC(=O)[C@H](CO)NC(=O)[C@H](C)NC(C)=O)C(C)C)C(=O)N[C@@H](CCCCN)C(N)=O [EBA175_001B] (Ac-ASFFVLYFAKARNEYDIK-NH2)
HLA-DRB1*0101
  IC50: 0.678 µM
HLA-DRB1*0401
  IC50: 2.27 µM
HLA-DRB1*0701
  IC50: 0.421 µM
HLA-DRB1*0801
  IC50: 9.88 µM
HLA-DRB1*1101
  IC50: 0.52 µM
HLA-DRB1*1301
  IC50: 2.24 µM
HLA-DRB1*1501
  IC50: 0.265 µM

## CC[C@H](C)[C@H](NC(=O)[C@H](CCCNC(=N)N)NC(=O)[C@H](CO)NC(=O)[C@@H](NC(=O)[C@H](CCCNC(=N)N)NC(=O)[C@@H](NC(=O)[C@H](C)NC(=O)[C@H](CC(N)=O)NC(=O)[C@@H](NC(=O)[C@@H]1CCCN1C(=O)[C@@H](NC(=O)[C@H](Cc1ccc(O)cc1)NC(=O)[C@H](CCCCN)NC(=O)[C@H](CC(N)=O)NC(=O)[C@H](CCC(N)=O)NC(=O)[C@H](CCCCN)NC(C)=O)C(C)C)[C@@H](C)CC)C(C)C)C(C)C)C(=O)N[C@@H](CC(C)C)C(=O)N[C@@H](CO)C(=O)N[C@@H](Cc1ccccc1)C(=O)N[C@@H](CC(C)C)C(=O)N[C@@H](CC(=O)O)C(=O)N[C@@H](CO)C(N)=O [EBA175_004] (Ac-KQNKYVPINAVRVSRILSFLDS-NH2)
HLA-DRB1*0101
  IC50: 0.004 µM
HLA-DRB1*0401
  IC50: 18.2 µM
HLA-DRB1*0701
  IC50: 0.018 µM
HLA-DRB1*0801
  IC50: 6.12 µM
HLA-DRB1*1101
  IC50: 0.396 µM
HLA-DRB1*1301
  IC50: 1.36 µM
HLA-DRB1*1501
  IC50: 2.07 µM

## CC[C@H](C)[C@H](NC(=O)[C@H](CO)NC(=O)[C@@H](NC(=O)[C@@H]1CCCN1C(=O)[C@@H](NC(=O)[C@H](CC(=O)O)NC(C)=O)C(C)C)[C@@H](C)CC)C(=O)N[C@H](C(=O)N[C@@H](CCCNC(=N)N)C(=O)N[C@@H](CC(N)=O)C(=O)N[C@@H](CC(N)=O)C(=O)N[C@@H](CCC(=O)O)C(=O)N[C@@H](CCC(N)=O)C(=O)N[C@H](C(=O)N[C@@H](CO)C(=O)N[C@@H](CCC(N)=O)C(=O)N[C@@H](CCC(=O)O)C(=O)N[C@@H](C)C(N)=O)[C@@H](C)O)[C@@H](C)CC [EBA175_014] (Ac-DVPISIIRNNEQTSQEA-NH2)
HLA-DRB1*0101
  IC50: 6.15 µM
HLA-DRB1*0401
  IC50: 3.81 µM
HLA-DRB1*0701
  IC50: 13.3 µM
HLA-DRB1*0801
  IC50: 18.7 µM
HLA-DRB1*1101
  IC50: 16.7 µM
HLA-DRB1*1301
  IC50: 14.1 µM
HLA-DRB1*1501
  IC50: 3.09 µM

## CC[C@H](C)[C@H](NC(=O)[C@H](CC(N)=O)NC(=O)[C@H](Cc1ccc(O)cc1)NC(=O)[C@H](CC(N)=O)NC(=O)[C@H](CO)NC(=O)[C@H](CC(C)C)NC(=O)[C@H](CCC(=O)O)NC(=O)[C@H](CCCCN)NC(=O)[C@H](Cc1ccccc1)NC(=O)[C@H](Cc1c[nH]cn1)NC(=O)[C@H](Cc1ccc(O)cc1)NC(=O)[C@H](CCC(N)=O)NC(=O)[C@@H](N)CC(C)C)C(=O)N[C@@H](C)C(=O)N[C@@H](CC(N)=O)C(=O)N[C@@H](CO)C(=O)N[C@H](C(=O)N[C@@H](CC(=O)O)C(N)=O)[C@@H](C)CC [RH5_005] (H-LQYHFKELSNYNIANSID-NH2)
HLA-DRB1*0101
  IC50: 0.018 µM
HLA-DRB1*0401
  IC50: 2.86 µM
HLA-DRB1*0701
  IC50: 3.79 µM
HLA-DRB1*0801
  IC50: 19.4 µM
HLA-DRB1*1101
  IC50: 11.3 µM
HLA-DRB1*1301
  IC50: 50.9 µM
HLA-DRB1*1501
  IC50: 0.025 µM

## CC[C@H](C)[C@H](NC(=O)[C@H](CS)NC(=O)[C@H](CCCCN)NC(=O)CNC(=O)[C@H](Cc1ccc(O)cc1)NC(=O)[C@@H](NC(=O)[C@H](CO)NC(=O)[C@H](CO)NC(=O)[C@H](CCCCN)NC(=O)[C@H](Cc1c[nH]cn1)NC(=O)[C@H](Cc1ccc(O)cc1)NC(=O)[C@@H](NC(=O)[C@H](CO)NC(=O)[C@H](CC(N)=O)NC(=O)[C@H](Cc1ccc(O)cc1)NC(=O)[C@H](CO)NC(=O)[C@H](CC(C)C)NC(=O)[C@H](Cc1c[nH]cn1)NC(C)=O)[C@@H](C)CC)[C@@H](C)O)C(=O)N[C@@H](C)C(N)=O [RH5_006B] (Ac-HLSYNSIYHKSSTYGKCIA-NH2)
HLA-DRB1*0101
  IC50: 1.35 µM
HLA-DRB1*0401
  IC50: 2.91 µM
HLA-DRB1*0701
  IC50: 19.8 µM
HLA-DRB1*0801
  IC50: 18.9 µM
HLA-DRB1*1101
  IC50: 0.834 µM
HLA-DRB1*1301
  IC50: 29.3 µM
HLA-DRB1*1501
  IC50: 7.8 µM

## CC[C@H](C)[C@H](NC(=O)[C@H](Cc1ccc(O)cc1)NC(=O)[C@@H](NC(=O)[C@H](Cc1ccc(O)cc1)NC(=O)[C@H](CO)NC(=O)CNC(=O)[C@H](CCSC)NC(=O)[C@H](CCCCN)NC(=O)[C@H](CCCCN)NC(=O)[C@H](CC(N)=O)NC(=O)[C@H](CC(C)C)NC(=O)[C@H](CC(N)=O)NC(=O)[C@@H](NC(=O)[C@H](CC(C)C)NC(=O)[C@H](CC(C)C)NC(=O)[C@H](CC(C)C)NC(=O)[C@H](CCC(=O)O)NC(=O)[C@@H](N)CO)[C@@H](C)O)[C@@H](C)CC)C(N)=O [RH5_010B] (H-SELLLTNLNKKMGSYIYI-NH2)
HLA-DRB1*0101
  IC50: 0.077 µM
HLA-DRB1*0401
  IC50: 84 µM
HLA-DRB1*0701
  IC50: 41.5 µM
HLA-DRB1*0801
  IC50: 6.46 µM
HLA-DRB1*1101
  IC50: 0.204 µM
HLA-DRB1*1301
  IC50: 9.34 µM
HLA-DRB1*1501
  IC50: 9.97 µM

## CC[C@H](C)[C@H](NC(=O)[C@H](CC(N)=O)NC(=O)[C@H](CC(N)=O)NC(=O)[C@H](CC(C)C)NC(=O)[C@H](Cc1c[nH]cn1)NC(=O)[C@H](CCCCN)NC(C)=O)C(=O)N[C@@H](Cc1ccccc1)C(=O)N[C@@H](Cc1c[nH]cn1)C(=O)N[C@@H](Cc1c[nH]cn1)C(=O)N[C@@H](CC(C)C)C(=O)N[C@H](C(=O)N[C@@H](Cc1ccc(O)cc1)C(=O)N[C@H](C(=O)N[C@@H](CC(C)C)C(=O)N[C@@H](CCC(N)=O)C(=O)N[C@@H](CCSC)C(=O)N[C@@H](CCCCN)C(N)=O)C(C)C)[C@@H](C)CC [RH5_012] (Ac-KHLNNIFHHLIYVLQMK-NH2)
HLA-DRB1*0101
  IC50: 0.025 µM
HLA-DRB1*0401
  IC50: 7.23 µM
HLA-DRB1*0701
  IC50: 24.2 µM
HLA-DRB1*0801
  IC50: 91.7 µM
HLA-DRB1*1101
  IC50: 33.9 µM
HLA-DRB1*1301
  IC50: 8.83 µM
HLA-DRB1*1501
  IC50: 7.71 µM
